Experimental findings from patent US12134611B2, “Compounds and compositions for treating conditions associated with NLRP activity” (Novartis AG, priority 2018, dated 2024) are described below.

The structures appear in SMILES notation.

This assay deals with T1, hNLRP3 (Homo sapiens, UniProt Q96P20).
T1 construct: THP-1 cells were purchased from the American Type Culture Collection; host or cells: THP-1 cells, PMA-differentiated, stimulated with gramicidin
T1 sequence (Q96P20 whole entry): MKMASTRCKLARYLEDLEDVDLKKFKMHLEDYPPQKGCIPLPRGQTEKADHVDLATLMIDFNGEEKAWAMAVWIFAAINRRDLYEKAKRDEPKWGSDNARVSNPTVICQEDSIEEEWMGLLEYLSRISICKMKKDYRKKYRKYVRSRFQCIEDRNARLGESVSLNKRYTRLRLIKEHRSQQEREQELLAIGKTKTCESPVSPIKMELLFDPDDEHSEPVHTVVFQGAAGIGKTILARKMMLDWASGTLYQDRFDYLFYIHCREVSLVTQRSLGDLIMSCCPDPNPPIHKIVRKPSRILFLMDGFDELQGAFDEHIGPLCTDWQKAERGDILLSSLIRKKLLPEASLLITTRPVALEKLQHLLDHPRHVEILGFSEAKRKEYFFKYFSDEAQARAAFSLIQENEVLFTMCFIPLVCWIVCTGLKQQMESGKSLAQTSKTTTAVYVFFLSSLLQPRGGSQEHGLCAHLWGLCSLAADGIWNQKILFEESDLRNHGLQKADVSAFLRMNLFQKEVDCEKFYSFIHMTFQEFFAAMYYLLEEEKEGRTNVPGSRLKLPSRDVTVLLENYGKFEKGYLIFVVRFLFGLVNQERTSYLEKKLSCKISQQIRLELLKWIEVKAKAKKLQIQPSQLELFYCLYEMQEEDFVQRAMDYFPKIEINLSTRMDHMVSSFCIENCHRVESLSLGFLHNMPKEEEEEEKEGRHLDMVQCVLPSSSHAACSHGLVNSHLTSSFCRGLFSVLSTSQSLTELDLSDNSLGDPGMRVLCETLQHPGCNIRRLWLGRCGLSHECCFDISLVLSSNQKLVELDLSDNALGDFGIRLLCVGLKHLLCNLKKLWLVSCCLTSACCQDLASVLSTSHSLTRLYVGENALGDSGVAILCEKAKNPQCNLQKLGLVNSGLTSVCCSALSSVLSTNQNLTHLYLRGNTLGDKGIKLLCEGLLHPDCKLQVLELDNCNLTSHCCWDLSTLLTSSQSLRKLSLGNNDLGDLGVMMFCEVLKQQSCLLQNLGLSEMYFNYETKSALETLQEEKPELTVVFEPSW
Kind of assay: IL-1β production in PMA-differentiated THP-1 cells stimulated with gramicidin (hTHP-1 assay). Format: cell-based. To be noted: read-out: NLRP3 Antagonist, hNLRP3 (THP-1, IL-1b) Normalized: GeoMean IC50. The protocol:
Procedure 1: IL-1β Production in PMA-Differentiated THP-1 Cells Stimulated with Gramicidin.
THP-1 cells were purchased from the American Type Culture Collection and sub-cultured according to instructions from the supplier. […] Prior to the experiment, compounds were dissolved in dimethyl sulfoxide (DMSO) to generate a 30 mM stock. […] DMSO was backfilled in the plate to achieve a final DMSO assay concentration of 0.37%. The plate was then sealed and stored at room temperature until required.
THP-1 cells were treated with PMA (Phorbol 12-myristate 13-acetate) (20 ng/ml) for 16-18 hours. On the day of the experiment the media was removed and adherent cells were detached with trypsin for 5 minutes.
Procedure 2: IL-1β Production in PMA-Differentiated THP-1 Cells Stimulated with Gramicidin.
THP-1 cells were purchased from the American Type Culture Collection and sub-cultured according to instructions from the supplier. […] Prior to the experiment THP-1 were treated with PMA (Phorbol 12-myristate 13-acetate) (20 ng/ml) for 16-18 hours. Compounds were dissolved in dimethyl sulfoxide (DMSO) to generate a 30 mM stock. On the day of the experiment the media was removed and adherent cells were detached with trypsin for 5 minutes. […] Final DMSO concentration was at 0.37%. Cells were incubated with compounds for 1 hour and then stimulated with gramicidin (5 μM) (Enzo) for 2 hours. Plates were then centrifuged at 340 g for 5 min. Cell free supernatant (40 μL) was collected using a 96-channel PlateMaster (Gilson) and the production of IL-1β was evaluated by HTRF (cisbio).
1. Experimental procedure
1.2 Compound Preparation • Prepare the 3-fold serial dilution of the compounds with DMSO in a 384-well LDV Microplate using TECAN EVO system to generate the compound source plate with 10 concentrations. Top concentration is 30 mM. FIG. 5 depicts the layout of the microplate.
FIG. 5 depicts the layout of the plates: HC: 100 μM CRID3 (MCC950)+5 μM gramicidin LC: 5 μM Gramicidin.
1.5 IL-1β Detection • 1) Homogenize the 5× diluent #5 with a vortex and add 1 volume of stock solution in 4 volumes of distilled water. • 2) Thaw 20× stock solution of anti-IL1β-Cryptate-antibody and anti-IL1β XL-antibody. […] 2. Data Analysis: • 1.
`CC(C)(O)c1ccc2c(c1)S(=O)(=NC(=O)Nc1c3c(nc(C4CC4)c1C1CC1)CCC3)NC2=O` (single isomer, unassigned) [Compound 106a, 1(R or S)-1-(2,3-dicyclopropyl-6,7-dihydro-5H-cyclopenta[b]pyridin-4-yl)-3-(6-(2-hydroxypropan-2-yl)-1-oxido-3-oxo-2,3-dihydro-1l4-benzo[d]isothiazol-1-ylidene)urea]: the IC50 (commonly the concentration that inhibits the measured activity by half) was 1 to 5 µM.
For `CC(C)(O)c1ccc2c(c1)C(=O)NS2(=O)=NC(=O)Nc1c2c(cc3c1CCC3)CCC2` (single isomer, unassigned) [Compound 121b, (S or R)-1-(1,2,3,5,6,7-hexahydro-s-indacen-4-yl)-3-(5-(2-hydroxypropan-2-yl)-1-oxido-3-oxo-2,3-dihydro-1l4-benzo[d]isothiazol-1-ylidene)urea], the IC50 lay within 5 to 30 µM.
`CN(C)C(=O)c1ccc2c(c1)S(=O)(=NC(=O)Nc1c3c(cc4c1CCC4)CCC3)NC2=O` (stereo not drawn) [Compound 214, 1-(((1,2,3,5,6,7-hexahydro-s-indacen-4-yl)carbamoyl)imino)-N,N-dimethyl-3-oxo-2,3-dihydro-1H-1l4-benzo[d]isothiazole-6-carboxamide 1-oxide]: the IC50 fell in the range of 5 to 30 µM.
Consider `CC(C)(O)c1ccc2c(c1)S(=O)(=NC(=O)Nc1c3c(nc(C4CC4)c1C1CC1)CCC3)NC2=O` (stereo not drawn) [Compound 106, 1-(2,3-dicyclopropyl-6,7-dihydro-5H-cyclopenta[b]pyridin-4-yl)-3-(6-(2-hydroxypropan-2-yl)-1-oxido-3-oxo-2,3-dihydro-1l4-benzo[d]isothiazol-1-ylidene)urea], for which the IC50 lay within 1 to 5 µM.
Take `O=C(N=S1(=O)NC(=O)c2ccccc21)Nc1c2c(cc3c1CCC3)CCC2` (racemic) [Compound 129, 3-(1,3-dioxo-2,3-dihydro-1-^λ-6,2-benzothiazol-1-ylidene)-1-(1,2,3,5,6,7-hexahydro-s-indacen-4-yl)urea]: the IC50 is 1 to 5 µM.
Consider `CC(O)(CO)c1ccc2c(c1)S(=O)(=NC(=O)Nc1c3c(cc4c1CCC4)CCC3)NC2=O` (stereo not drawn) [Compound 208, 1-(6-(1,2-dihydroxypropan-2-yl)-1-oxido-3-oxo-2,3-dihydro-1l4-benzo[d]isothiazol-1-ylidene)-3-(1,2,3,5,6,7-hexahydro-s-indacen-4-yl)urea], for which the 50% inhibitory concentration (IC50) lay in the range of 0.04 to 0.2 µM.
Turning to `O=C1CCCS(=O)(=NC(=O)Nc2c3c(cc4c2CCC4)CCC3)N1` (stereo not drawn) [Compound 113, 1-(1,2,3,5,6,7-hexahydro-s-indacen-4-yl)-3-(1-oxido-3-oxo-1l6,2-thiazinan-1-ylidene)urea], the 50% inhibitory concentration (IC50) lay in the range of 1 to 5 µM.
The result for `O=C1CCS(=O)(=NC(=O)Nc2c3c(cc4c2CCC4)CCC3)N1` (single isomer, unassigned) [Compound 131a, (R or S)-1-(1,2,3,5,6,7-hexahydro-s-indacen-4-yl)-3-(1-oxido-3-oxo-1l6-isothiazolidin-1-ylidene)urea] reads 1 to 5 µM.
With `O=C(N=S1(=O)NC(=O)c2ccc(CO)cc21)Nc1c2c(cc3c1CCC3)CCC2` (stereo not drawn) [Compound 216, 1-(1,2,3,5,6,7-hexahydro-s-indacen-4-yl)-3-(6-(hydroxymethyl)-1-oxido-3-oxo-2,3-dihydro-1l4-benzo[d]isothiazol-1-ylidene)urea], the IC50 fell in the range of 0.2 to 1 µM.
Regarding `C=C(C)c1ccc2c(c1)S(=O)(=NC(=O)Nc1c3c(cc4c1CCC4)CCC3)NC2=O` (stereo not drawn) [Compound 207, 1-(1,2,3,5,6,7-hexahydro-s-indacen-4-yl)-3-(1-oxido-3-oxo-6-(prop-1-en-2-yl)-2,3-dihydro-1l4-benzo[d]isothiazol-1-ylidene)urea], the IC50 was in the range of 5 to 30 µM.
The result for `CC(C)c1cc2c(c(C(C)C)c1CC(=O)N=S1(=O)NC(=O)c3ccc(C(C)(C)O)cc31)COC2` (single isomer, unassigned) [Compound 104a, (S or R)-2-(4,6-diisopropyl-1,3-dihydroisobenzofuran-5-yl)-N-(6-(2-hydroxypropan-2-yl)-1-oxido-3-oxo-2,3-dihydro-1l4-benzo[d]isothiazol-1-ylidene)acetamide] reads greater than 30 µM; that for `CC(C)c1cc(C(F)F)cc(C(C)C)c1CC(=O)N=S1(=O)NC(=O)c2ccccc21` (stereo not drawn) [Compound 123a], greater than 30 µM; that for `CC(O)(CO)c1ccc2c(c1)S(=O)(=NC(=O)Nc1c3c(cc4c1CCC4)CCC3)NC2=O` (single isomer, unassigned) [Compound 208b, 1-((1S or R)-6-(1,2-dihydroxypropan-2-yl)-1-oxido-3-oxo-2,3-dihydro-1l4-benzo[d]isothiazol-1-ylidene)-3-(1,2,3,5,6,7-hexahydro-s-iadacen-4-yl)urea], 0.04 to 0.2 µM.
The result for `CC(C)(O)c1ccc2c(c1)S(=O)(=NC(=O)Nc1c3c(nc4c1CCC4(C)C)CCC3)NC2=O` (single isomer, unassigned) [Compound 137, (S or R)-1-(3,3-dimethyl-1,2,3,5,6,7-hexahydrodicyclopenta[b,e]pyridin-8-yl)-3-(6-(2-hydroxypropan-2-yl)-1-oxido-3-oxo-2,3-dihydro-1l4-benzo[d]isothiazol-1-ylidene)urea] reads 0.2 to 1 µM; that for `CC(C)c1cc(F)cc(C(C)C)c1CC(=O)N=S1(=O)NC(=O)c2ccc(C(C)(C)O)cc21` (stereo not drawn) [Compound 109], greater than 30 µM; that for `Cc1c(C(F)(F)F)nc2c(c1NC(=O)N=S1(=O)NC(=O)c3ccc(C(C)(C)O)cc31)CCC2` (single isomer, unassigned) [Compound 108a, (R or S)-1-(6-(2-hydroxypropan-2-yl)-1-oxido-3-oxo-2,3-dihydro-1l4-benzo[d]isothiazol-1-ylidene)-3-(3-methyl-2-(trifluoromethyl)-6,7-dihydro-5H-cyclopenta[b]pyridin-4-yl)urea], 0.2 to 1 µM.
Regarding `O=C(N=S1(=O)NC(=O)c2cccnc21)Nc1c2c(cc3c1CCC3)CCC2` (single isomer, unassigned) [Compound 223b, (R or S)-1-(1,2,3,5,6,7-hexahydro-s-indacen-4-yl)-3-(1-oxido-3-oxo-2,3-dihydro-1l4-isothiazolo[5,4-b]pyridin-1-ylidene)urea], the IC50 lay in the range of 5 to 30 µM.
In the case of `CN(C)Cc1ccc2c(c1)CNS2(=O)=NC(=O)Nc1c2c(cc3c1CCC3)CCC2` (stereo not drawn) [Compound 122, 1-{5-[(dimethylamino)methyl]-1-oxo-2,3-dihydro-1$l6,2-benzothiazol-1-ylidene}-3-(1,2,3,5,6,7-hexahydro-s-indacen-4-yl)urea], the IC50 was 5 to 30 µM.
Turning to `O=C1CC(Cc2ccccc2)S(=O)(=NC(=O)Nc2c3c(cc4c2CCC4)CCC3)N1` (stereo not drawn) [Compound 101, 1-(5-benzyl-1-oxido-3-oxo-1l6-isothiazolidin-1-ylidene)-3-(1,2,3,5,6,7-hexahydro-s-indacen-4-yl)urea], the IC50 lay within 1 to 5 µM.
For the molecule `CN(C)Cc1ccc2c(c1)S(=O)(=NC(=O)Nc1c3c(cc4c1CCC4)CCC3)NC2` (single isomer, unassigned) [Compound 133b, (S or R)-1-(6-((dimethylamino)methyl)-1-oxido-2,3-dihydro-1l4-benzo[d]isothiazol-1-ylidene)-3-(1,2,3,5,6,7-hexahydro-s-indacen-4-yl)urea], the IC50 is greater than 30 µM.
`COC(=O)c1ccc2c(c1)S(=O)(=NC(=O)Nc1c3c(cc4c1CCC4)CCC3)NC2=O` (stereo not drawn) [Compound 134, methyl 1-(((1,2,3,5,6,7-hexahydro-s-indacen-4-yl)carbamoyl)imino)-3-oxo-2,3-dihydro-1H-1l4-benzo[d]isothiazole-6-carboxylate 1-oxide]: the half-maximal inhibitory concentration (IC50) is 5 to 30 µM.
On to `O=C(N=S1(=O)NCc2ccccc21)Nc1c2c(cc3c1CCC3)CCC2` (single isomer, unassigned) [Compound 130a, 1-(1,2,3,5,6,7-hexahydro-s-indacen-4-yl)-3-[(1S or 1R)-1-oxo-2,3-dihydro-1-^λ-6,2-benzothiazol-1-ylidene]urea], for which the IC50 is greater than 30 µM.
For the molecule `O=C(N=S1(=O)NC(=O)c2ccc(CNCC3CC3)cc21)Nc1c2c(cc3c1CCC3)CCC2` (stereo not drawn) [Compound 218, 1-(6-(((cyclopropylmethyl)amino)methyl)-1-oxido-3-oxo-2,3-dihydro-1l4-benzo[d]isothiazol-1-ylidene)-3-(1,2,3,5,6,7-hexahydro-s-indacen-4-yl)urea], the IC50 lay within 0.2 to 1 µM.
For the molecule `O=C(Nc1c2c(cc3c1CCC3)CCC2)NS1(=O)=NC(=O)c2ccc(Cl)cc21` (stereo not drawn) [Compound 128, 3-(6-chloro-1,3-dioxo-2,3-dihydro-1-^λ-6,2-benzothiazol-1-ylidene)-1-(1,2,3,5,6,7-hexahydro-s-indacen-4-yl)urea], the IC50 was in the range of 5 to 30 µM.
